Experiments:
HER2 = target: T1, HER2 (Homo sapiens, UniProt P04626); test: Inhibition of phosphorylation of receptor tyrosine (HER2) in human breast cancer cells MCF-7; format: cell-based; conditions: MCF-7 cells, test compound 2 hours, then heregulin 0.8 μg/mL for 5 minutes
T1 construct: amount of phosphorylation of HER2 tyrosine of the cells; endogenous in cells; host or cells: MCF-7 human breast cancer cell line
Description: Inhibition of Phosphorylation of Receptor Tyrosine in Human Breast Cancer Cells
In each well of a 24-well plate, 500 μl of the cell suspension ([…]) of human breast cancer cell line MCF-7 was seeded and incubated at 37° C. in a 5% carbon dioxide gas incubator. On the next day, 250 μl of a 4-fold serial dilution of a solution of a test compound was added to each well and, 2 hours later, 250 μl of a heregulin solution, which was adjusted so as to be the final concentration of 0.8 μg/mL, was added thereto. After 5 minutes, an extracting solution was added thereto to terminate the reaction as well as to extract a protein. The protein was fractionated by protein electrophoresis and the protein in the electrophoretic gel was transferred to a nylon filter. The filter was reacted with a phosphorylated tyrosine-specific antibody. The reaction product was fluorescence-labeled and was exposed to a photo-film. The intensity of the exposure on the photo-film was quantitated by an image-analyzing apparatus.

[1] = test system: human breast cancer cell line BT-474; test: In vitro inhibition of growth of breast cancer cell BT-474; format: cell-based; conditions: 120 h, BT-474 cells, heregulin, cultured for 5 days, SRB staining
Description: In vitro Inhibition of Growth of Breast Cancer Cell BT-474
In each well of a 96-well microtiter plate, 100 μl (containing 1,000 cells) of a cell suspension of human breast cancer cell line BT-474 was seeded and incubated at 37° C. in a 5% carbon dioxide gas incubator. On the next day, 100 μl of the 2-fold serial dilution of a solution of each test compound prepared by using 250 μl of a heregulin solution, which was adjusted so as to be the final concentration of 0.8 μg/mL, was added to each well and cultured for 5 days. The solution containing the test compound was removed and the cells were washed and fixed with a 50% trichloroacetic acid solution. To the cells was added a 0.4% (W/V) solution of pigment SRB (dissolved in 1% acetic acid) to fix as well as stain the cell protein (Skehan P. et al., Journal of the National Cancer Institute Vol. 82, pp. 1107-1112, 1990). The pigment solution was removed and the remainder was washed with a 1% acetic acid solution. Then, 100 μl of an extracting solution (10 mM Tris buffer) was added thereto to extract the pigment. The optical density of the extract at the wavelength of 550 nm was measured to determine the amount of the cells in terms of the amount of the protein. The proportion of the amount of remaining protein of each treated group was determined by taking the amount of protein of the control to which no solution of a test compound was added as 100% to calculate the value of the concentration of the compound required for inhibiting the remaining cells by 50% of that of the control (IC50)

[2] = test system: Human breast cancer cell line BT-474; test: In vivo breast cancer inhibiting effect (BT-474 implanted in nude mice); conditions: nude mice with BT-474 tumors, orally twice daily 30 mg/kg body weight for 10 days
Description: In Vivo Breast Cancer Inhibiting Effect
Human breast cancer cell line BT-474 (5,000,000 cells) were suspended in a gel-matrix solution. The suspension was subcutaneously implanted in the breast of 6-week-old female Balb/C strain nude mice (Friedman R. et al., Proceedings of the National Academy of Sciences of the U.S.A. Vol. 87, pp. 6698-6702, 1990). At the time of the implantation and seven days after the implantation, an estradiol dipropionate solution (5 mg/mL) was intramuscularly administered to the hind leg for the purpose of enhancing a take ratio of tumors. Fourteen days after the implantation, the diameters of tumors were determined. For the experiment were used 5 mice per group with similar tumor size. Each of compounds (4, 6, 14, 17, 19, 20, 23, 24 and 26) of the present invention was suspended in a 5% gum arabic solution (physiological saline) and administered orally twice daily in dose of 30 mg/kg body weight for 10 days. On the day when the administration was terminated, the diameters of tumors were measured. Tumor volume was calculated by the following equation.
Volume of tumor=longest diameter×shortest diameter×shortest diameter×½
The growth rate of tumors was calculated as the proportion of the value obtained by subtracting the initial volume from the final volume in the group to which the drug was administered, to the value obtained by subtracting the initial volume from the final volume in the control group to which a gum arabic solution was administered.

T1 sequence (P04626 23-1255): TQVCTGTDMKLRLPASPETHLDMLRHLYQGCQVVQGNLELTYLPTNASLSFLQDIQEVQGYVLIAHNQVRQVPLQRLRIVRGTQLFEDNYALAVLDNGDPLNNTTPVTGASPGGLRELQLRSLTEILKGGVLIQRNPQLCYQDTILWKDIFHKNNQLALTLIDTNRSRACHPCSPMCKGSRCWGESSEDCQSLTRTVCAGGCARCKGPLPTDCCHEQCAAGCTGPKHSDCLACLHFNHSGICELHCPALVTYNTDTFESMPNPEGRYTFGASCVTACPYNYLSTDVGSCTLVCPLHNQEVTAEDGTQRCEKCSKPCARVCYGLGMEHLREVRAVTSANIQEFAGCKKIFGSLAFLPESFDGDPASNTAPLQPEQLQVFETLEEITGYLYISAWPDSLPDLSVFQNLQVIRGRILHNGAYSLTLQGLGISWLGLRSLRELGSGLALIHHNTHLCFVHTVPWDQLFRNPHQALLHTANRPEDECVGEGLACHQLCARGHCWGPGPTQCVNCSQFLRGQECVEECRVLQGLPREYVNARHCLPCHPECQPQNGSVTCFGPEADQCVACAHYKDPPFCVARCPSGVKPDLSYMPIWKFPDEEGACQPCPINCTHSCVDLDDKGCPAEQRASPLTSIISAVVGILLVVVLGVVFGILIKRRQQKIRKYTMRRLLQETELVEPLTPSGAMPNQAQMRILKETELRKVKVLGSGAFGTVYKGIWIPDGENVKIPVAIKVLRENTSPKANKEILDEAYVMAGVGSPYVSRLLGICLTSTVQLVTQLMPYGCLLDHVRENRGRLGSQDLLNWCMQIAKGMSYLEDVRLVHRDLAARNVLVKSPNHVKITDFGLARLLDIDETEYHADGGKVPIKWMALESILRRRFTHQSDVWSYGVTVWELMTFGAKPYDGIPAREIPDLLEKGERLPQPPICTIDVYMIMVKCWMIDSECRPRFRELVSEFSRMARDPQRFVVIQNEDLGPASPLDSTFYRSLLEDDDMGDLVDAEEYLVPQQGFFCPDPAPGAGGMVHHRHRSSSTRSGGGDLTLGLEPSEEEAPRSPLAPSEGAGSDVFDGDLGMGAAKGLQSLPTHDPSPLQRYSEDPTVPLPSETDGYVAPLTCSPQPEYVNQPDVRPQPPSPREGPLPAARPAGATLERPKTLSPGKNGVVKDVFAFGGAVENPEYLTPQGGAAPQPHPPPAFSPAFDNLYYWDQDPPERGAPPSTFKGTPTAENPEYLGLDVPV

Row | Compound | IC50 (HER2) [µM] | IC50 [1] [µM] | melting point [°C] | Inhibition ratio (%) [2] [%]
1 | Fc1ccc(/C=C/c2nc(COc3cccc(CCCn4ccnn4)c3)co2)cc1 [B3, 1-{3-[3-({2-[(E)-2-(4-Fluorophenyl)ethenyl]-1,3-oxazol-4-yl}methoxy)phenyl]propyl}-1H-1,2,3-triazole] | 0.18 | < 0.05 | 105 to 106 | 
2 | FC(F)(F)c1ccc(/C=C/c2nc(COc3ccc(CCCn4ccnn4)cc3)co2)cc1 [B5, 1-(3-{4-[(2-{(E)-2-[4-(Trifluoromethyl)phenyl]ethenyl}-1,3-oxazol-4-yl)methoxy]phenyl}propyl)-1H-1,2,3-triazole] |  | < 0.05 | 157 to 158 | 
3 | Fc1ccc(/C=C/c2nc(COc3ccc(CCCCn4ccnn4)cc3)co2)c(F)c1 [B7, 1-{4-[4-({2-[(E)-2-(2,4-Difluorophenyl)ethenyl]-1,3-oxazol-4-yl}methoxy)phenyl]butyl}-1H-1,2,3-triazole] |  |  | 115 to 117 | 
4 | Fc1ccc(/C=C/c2nc(COc3cccc(CCCn4ccnn4)c3)co2)c(F)c1 [B8, 1-{3-[3-({2-[(E)-2-(2,4-Difluorophenyl)ethenyl]-1,3-oxazol-4-yl}methoxy)phenyl]propyl}-1H-1,2,3-triazole] |  |  | 89 to 90 | 
5 | OCC(O)Cc1nccn1CCCCc1ccc(OCc2coc(/C=C/c3ccc(C(F)(F)F)cc3)n2)cc1 (centres unmarked) [B24, 3-[1-(4-{4-[(2-{(E)-2-[4-(Trifluoromethyl)phenyl]ethenyl}-1,3-oxazol-4-yl)methoxy]phenyl}butyl)-1H-imidazol-2-yl]-1,2-propanediol] |  |  | 142 to 143 | 28
6 | OCC(O)Cc1nccn1CCCc1cccc(OCc2coc(/C=C/c3ccc(C(F)(F)F)cc3)n2)c1 (centres unmarked) [B25, 3-[1-(3-{3-[(2-{(E)-2-[4-(Trifluoromethyl)phenyl]ethenyl}-1,3-oxazol-4-yl)methoxy]phenyl}propyl)-1H-imidazol-2-yl]-1,2-propanediol] |  |  | 102 to 104 | 
7 | OCC(O)Cc1nccn1CCCc1cccc(OCc2coc(/C=C/c3ccc(F)cc3F)n2)c1 (centres unmarked) [B27, 3-(1-{3-[3-({2-[(E)-2-(2,4-Difluorophenyl)ethenyl]-1,3-oxazol-4-yl}methoxy)phenyl]propyl}-1H-imidazol-2-yl)-1,2-propanediol] |  |  | 92 to 94 | 
8 | OCC(O)Cc1nccn1CCCCc1ccc(OCc2coc(/C=C/c3c(F)cccc3F)n2)cc1 (centres unmarked) [B28, 3-[1-[4-[4-[[2-[(E)-2-(2,6-Difluorophenyl)ethenyl]-1,3-oxazol-4-yl]methoxy]phenyl]butyl]-1H-imidazol-2-yl]-1,2-propanediol] |  |  | 123 to 125 | 
9 | Fc1ccc(/C=C/c2nc(COc3ccc(CCCCn4ccnn4)cc3)co2)cc1 [Reference Example B2, 1-{4-[4-({2-[(E)-2-(4-Fluorophenyl)ethenyl]-1,3-oxazol-4-yl}methoxy)phenyl]butyl}-1H-1,2,3-triazole] | 1.9 | < 0.05 | 124 to 125 | 
10 | FC(F)(F)c1ccc(/C=C/c2nc(COc3cccc(CCCn4ccnn4)c3)co2)cc1 [Reference Example B6, 1-(3-{3-[(2-{(E)-2-[4-(Trifluoromethyl)phenyl]ethenyl}-1,3-oxazol-4-yl)methoxy]phenyl}propyl)-1H-1,2,3-triazole] | 1.2 | < 0.05 | 115 to 116 | 28
11 | OCC(O)Cc1nccn1CCCCc1ccc(OCc2coc(/C=C/c3ccc(F)cc3F)n2)cc1 (centres unmarked) [Reference Example B26, 3-(1-{4-[4-({2-[(E)-2-(2,4-Difluorophenyl)ethenyl]-1,3-oxazol-4-yl}methoxy)phenyl]butyl}-1H-imidazol-2-yl)-1,2-propanediol] | 0.92 | < 0.05 |  | 15

The next lines start with results.

Row | IC50 (HER2) [µM] | IC50 [1] [µM] | melting point [°C] | Compound | Inhibition ratio (%) [2] [%]
12 |  |  | 108 to 109 | Cc1ccc(/C=C/c2nc(COc3ccc(CCCCn4ccnc4CCO)cc3)co2)cc1 [B10, 2-[1-[4-[4-[[2-[(E)-2-(4-Methylphenyl)ethenyl]-1,3-oxazol-4-yl]methoxy]phenyl]butyl]-1H-imidazol-2-yl]-1-ethanol] | 
13 | 1.1 | < 0.05 | 109 to 111 | Cc1cccc(/C=C/c2nc(COc3ccc(CCCCn4ccnc4CCO)cc3)co2)c1 [B11, 2-[1-[4-[4-[[2-[(E)-2-(3-Methylphenyl)ethenyl]-1,3-oxazol-4-yl]methoxy]phenyl]butyl]-1H-imidazol-2-yl]-1-ethanol] | 
14 |  |  | 91 to 93 | Cc1ccccc1/C=C/c1nc(COc2ccc(CCCCn3ccnc3CCO)cc2)co1 [B12, 2-[1-[4-[4-[[2-[(E)-2-(2-Methylphenyl)ethenyl]-1,3-oxazol-4-yl]methoxy]phenyl]butyl]-1H-imidazol-2-yl]-1-ethanol] | 
15 |  |  | 94 to 95 | CCc1ccc(/C=C/c2nc(COc3ccc(CCCCn4ccnc4CCO)cc3)co2)cc1 [B13, 2-[1-[4-[4-[[2-[(E)-2-(4-Ethylphenyl)ethenyl]-1,3-oxazol-4-yl]methoxy]phenyl]butyl]-1H-imidazol-2-yl]-1-ethanol] | 
16 |  |  | 130 to 132 | OCCc1nccn1CCCCc1ccc(OCc2coc(/C=C/c3ccc(F)cc3)n2)cc1 [B14, 2-(1-{4-[4-({2-[(E)-2-(4-Fluorophenyl)ethenyl]-1,3-oxazol-4-yl}methoxy)phenyl]butyl}-1H-imidazol-2-yl)-1-ethanol] | 
17 |  |  | 127 to 128 | OCCc1nccn1CCCCc1ccc(OCc2coc(/C=C/c3ccc(Cl)cc3)n2)cc1 [B15, 2-[1-[4-[4-[[2-[(E)-2-(4-Chlorophenyl)ethenyl]-1,3-oxazol-4-yl]methoxy]phenyl]butyl]-1H-imidazol-2-yl]-1-ethanol] | 
18 |  |  | 149 to 150 | OCCc1nccn1CCCCc1ccc(OCc2coc(/C=C/c3ccc(Br)cc3)n2)cc1 [B16, 2-[1-[4-[4-[[2-[(E)-2-(4-Bromophenyl)ethenyl]-1,3-oxazol-4-yl]methoxy]phenyl]butyl]-1H-imidazol-2-yl]-1-ethanol] | 
19 | 1.5 | < 0.05 | 94 to 96 | OCCc1nccn1CCCc1ccc(OCc2coc(/C=C/c3ccc(F)cc3F)n2)cc1 [B20, 2-[1-[3-[4-[[2-[(E)-2-(2,4-Difluorophenyl)ethenyl]-1,3-oxazol-4-yl]methoxy]phenyl]propyl]-1H-imidazol-2-yl]-1-ethanol] | 
20 | 1.9 | < 0.05 | 102 to 104 | Cc1cccc(/C=C/c2nc(COc3ccc(CCCCn4ccnc4CC(O)CO)cc3)co2)c1 (centres unmarked) [B22, 3-(1-{4-[4-({2-[(E)-2-(3-Methylphenyl)ethenyl]-1,3-oxazol-4-yl}methoxy)phenyl]butyl}-1H-imidazol-2-yl)-1,2-propanediol] | 
21 |  |  | 114 to 116 | OCC(O)Cc1nccn1CCCCc1ccc(OCc2coc(/C=C/c3ccc(F)cc3)n2)cc1 (centres unmarked) [B23, 3-(1-{4-[4-({2-[(E)-2-(4-Fluorophenyl)ethenyl]-1,3-oxazol-4-yl}methoxy)phenyl]butyl}-1H-imidazol-2-yl)-1,2-propanediol] | 27
22 |  | 0.017 | 93 to 95 | OCCc1nccn1CCCCc1ccc(OCc2coc(/C=C/c3ccc(F)cc3F)n2)cc1 [Reference Example B19, 2-[1-[4-[4-[[2-[(E)-2-(2,4-Difluorophenyl)ethenyl]-1,3-oxazol-4-yl]methoxy]phenyl]butyl]-1H-imidazol-2-yl]-1-ethanol] | 

— patent US20040053972A1, “Medicinal compositions having improved absorbability” (priority 2000, published 2004)
